Data set [1] deals with LPS-induced TNF-α release in peripheral blood mononuclear cells (PBMCs). The data set can be described thus: PDE4 inhibitory activity in the PBMCs assay (LPS-induced TNF-α release). The data set is classed as cell-based. As to conditions: PBMC; human PBMCs, LPS 3 ng/ml, 18 h, TNF-α by ELISA; mean (95% confidence limits). The procedure:
The assay, which is based on the known inhibitory activity exerted by PDE4 inhibitors on the lipopolyshaccarides (LPS)-induced tumour necrosis factor-alpha (TNF-α) release in peripheral blood mononuclear cells (PBMCs), was performed according to a method previously described (Hatzelmann A et al J. Pharmacol. Exp. Ther. 2001; 297:267-279; Draheim R et al J. Pharmacol. Exp. Ther. 2004; 308:555-563.
Cryopreserved human PBMCs, (100 μl/well) were incubated in 96-well plates (10^5 cells/well), for 30 min, in the presence or absence (50 microl) of the test compounds whose concentrations ranged from 10^−12 M to 10^−6 M. Subsequently, LPS (3 ng/ml) was added.
After 18 h incubation at 37° C. in a humidified incubator under an atmosphere of 95% air and 5% CO2, culture medium was collected and TNF-α measured by ELISA.
The results, expressed as mean ±95% confidence limits of the molar concentration of the test compound producing 50% inhibition of LPS-induced TNF-α release (IC50) are reported in Table 1.
The effects of the tested compounds were calculated as percentage of inhibition of TNF-α release, assuming LPS-induced TNF-α production in the absence of inhibitor compound as 100% and basal TNF-α production of PBMCs in the absence of LPS as 0%.
Background: ELISA stands for enzyme-linked immunosorbent assay.

The test system of the next data set is PDE4 enzyme. In words: PDE4 inhibitory activity in the cell free assay (cAMP disappearance, U937 cell supernatant). The data set is classed as biochemical, human. As to conditions: 1.6 μM cAMP, 30 min at 30° C., mean (95% confidence limits). The procedure: The U937 human monocytic cell line was used as source of PDE4 enzyme. Cells were cultured, harvested and supernatant fraction prepared essentially as described in Torphy T J et al J. Pharmacol. Exp. Ther. 1992; 263:1195-1205.
PDE4 activity was determined in cells supernatants by assaying cAMP disappearance from the incubation mixtures. 50 μl of cell supernatant were incubated at 30° C. for 30 minutes in a final volume of 200 μl in the presence of 1.6 μM cAMP with or without the test compound (50 μl).
The concentration of the test compounds ranged between 10^−12 M and 10^−6 M. Reactions were stopped by heat inactivation (2.5 minutes at 100° C.) and residual cAMP was measured using an electro-chemiluminescence (ECL)-based immunoassay.
The results, expressed as mean ±95% confidence limits of the molar concentration of the test compound producing 50% inhibition of cAMP disappearance (IC50) are reported in Table 1 of Example 38.
Percentage of inhibition of PDE4 activity was calculated, assuming cAMP disappearance in the absence of inhibitors as 100% and cAMP disappearance in heat inactivated samples as 0%.

The target of the next data set is HPDE4. In words: Competition for high affinity HPDE4 ([H3]rolipram binding). As to conditions: 50% inhibition of the binding of [H3]rolipram. The procedure: (§1) In the case of LPDE4, the IC50 is the molar concentration of the test compound producing 50% inhibition of cAMP disappearance, assessed as described in Cortijo J et al Br J Pharmacol 1993, 108: 562-568, while in the case of HPDE4, the IC50 is the molar concentration of the test compound producing 50% inhibition of the binding of [H^3]rolipram, assessed as described in Duplantier A J et al J Med Chem 1996; 39: 120-125.
(§2) The affinity toward LPDE4 and HPDE4 was assessed as previously described respectively in Cortijo J et al Br J Pharmacol 1993, 108: 562-568 and Duplantier A J et al J Med Chem 1996; 39: 120-125.
(§3) The concentration of the test compounds ranged between 10^−12 M and 10^−5 M.
(§4) In the case of LPDE4, the IC50 is the molar concentration of the test compound producing 50% inhibition of cAMP disappearance, while in the case of HPDE4, the IC50 is the molar concentration of the test compound producing 50% inhibition of the binding of [H^3] rolipram.

For a further data set, the system named is LPDE4. The data set can be described thus: Inhibition of low affinity LPDE4 (cAMP disappearance). The format is biochemical. As to conditions: for IC50: 50% inhibition of cAMP disappearance; for HPDE4/LPDE4: ratio of IC50 values. The procedure: as §1, §2, §3, §4
In data set [2] the test system is bronchoalveolar lavage neutrophils. In words: LPS-induced acute pulmonary inflammation in rats (animal model of COPD), intratracheal administration. The data set is classed as in vivo. The protocol:
The anti-inflammatory activity of a representative compound of the invention, e.g. CHF 5480 was evaluated after intratracheal (i.t.) administration according to the method described in Belvisi M G J Pharmacol Exp Ther 2005, 314: 568-574.
CHF 5480 was tested by i.t. instillation 24 h and 1 h before exposure to LPS.

Data set [3] in a line: Pulmonary and plasma levels after intratracheal administration. The format is in vivo, rats.

What is called IC50 is the concentration at which inhibition is half-maximal. A high value points to a need for much substance.

On to `COc1ccc(/C(=C/c2c(Cl)cncc2Cl)OC(=O)c2ccc(OC(F)F)c(OCC3CC3)c2)cc1OC` [CHF 5555, 3-Cyclopropylmethoxy-4-difluoromethoxy-benzoic acid, (Z)-2-(3,5-dichloro-pyridin-4-yl)-1-(3,4-dimethoxy-phenyl)vinyl ester], for which the IC50 in data set [1] was determined as 2 nM; with PDE4 enzyme, 6.1 nM.
For `COc1ccc(/C(=C/c2c(Cl)cncc2Cl)OC(=O)c2ccc([N+](=O)[O-])cc2)cc1OC` [CHF 5513, 4-Nitro-benzoic acid, (Z)-2-(3,5-dichloro-pyridin-4-yl)-1-(3,4-dimethoxy-phenyl)vinyl ester] the same measures were 8.5 nM and 0.5 nM.
For the compound `COc1ccc(C(=O)Cc2c(Cl)cncc2Cl)cc1OC1CCCC1` [CHF 5400, 1-(3-cyclopentyloxy-4-methoxy-phenyl)-2-(3,5-dichloro-pyridin-4-yl)-ethanone, reference compound], the IC50 at HPDE4 is 0.61 nM. Also, in the data set on LPDE4, the IC50 was 0.94 nM and the HPDE4/LPDE4 is listed as 1.5.
On to `COc1ccc(C(=O)O/C(=C\c2c(Cl)cncc2Cl)c2ccc(OC)c(OC3CCCC3)c2)cc1OC1CCCC1` [CHF 5408, 3-Cyclopentyloxy-4-methoxy-benzoic acid, (Z)-1-(3-cyclopentyloxy-4-methoxy-phenyl)-2-(3,5-dichloro-pyridin-4-yl)vinyl ester], for which the 50% inhibitory concentration (IC50) in data set [1] amounted to 0.9 nM; at HPDE4 it was 0.74 nM; in the data set on LPDE4, 42.6 nM; in the data set with PDE4 enzyme it was 1.3 nM. Also, the HPDE4/LPDE4 in the data set on LPDE4 is 57.6.
Regarding `COc1ccc(C(=O)O/C(=C\c2c(Cl)cncc2Cl)c2ccc(OC)c(OC3CCCC3)c2)cc1OCc1ccccc1` [CHF 5528, 3-Benzyloxy-4-methoxy-benzoic acid, (Z)-1-(3-cyclopentyloxy-4-methoxy-phenyl)-2-(3,5-dichloro-pyridin-4-yl)vinyl ester], the IC50 came to 21.8 nM in data set [1] and 7.3 nM with PDE4 enzyme.
The like results for `COc1ccc(/C(=C/c2c(Cl)cncc2Cl)OC(=O)c2ccc(N)cc2)cc1OC` [CHF 5530, 4-Amino-benzoic acid, (Z)-2-(3,5-dichloro-pyridin-4-yl)-1-(3,4-dimethoxy-phenyl)vinyl ester] were, in that order, 5.4 nM and 1.7 nM.
The like results for `COc1ccc(/C(=C/c2c(Cl)cncc2Cl)OC(=O)c2ccc(NS(C)(=O)=O)cc2)cc1OC` [CHF 5526, 4-Methanesulfonylamino-benzoic acid (Z)-2-(3,5-dichloro-pyridin-4-yl)-1-(3,4-dimethoxy-phenyl)vinyl ester] were, in that order, 3.77 nM and 0.7 nM.
For `COc1ccc(/C(=C/c2c(Cl)cncc2Cl)OC(=O)[C@@H](C)c2ccc(CC(C)C)cc2)cc1OC` [CHF 5480, 2-(S)-(4-Isobutyl-phenyl)-propionic acid, (Z)-2-(3,5-dichloro-pyridin-4-yl)-1-(3,4-dimethoxy-phenyl)vinyl ester], the “inhibition of bronchoalveolar lavage neutrophils” value in data set [2] (i.t. instillation 24 h and 1 h before LPS, doses 0.001 to 10 μmoles/kg) is “significant and dose-dependent inhibition”. In addition, the “reduction of neutrophilia (maximal effect)” value in data set [2] (i.t., 1 μmole/kg dose) came out at 60%. Further, the IC50 was 26 nM in data set [1] and 17.9 nM with PDE4 enzyme. Further, in data set [3] (i.t. administration, plasma), the levels in plasma entry is listed as “no detectable levels”. For the same compound, the MRT in data set [3] (rat, other: intratracheal (i.t.) instillation, lung, read-out: mean residence time in the lungs) is 15.3 h.
As for `COc1ccc(C(=O)O/C(=C\c2c(Cl)cncc2Cl)c2ccc(OC(F)F)c(OCC3CC3)c2)cc1OC` [CHF 5472, 3,4-Dimethoxy-benzoic acid, (Z)-1-(3-cyclopropylmethoxy-4-difluoromethoxy-phenyl)-2-(3,5-dichloro-pyridin-4-yl)vinyl ester], the IC50 in data set [1] came out at 5.4 nM; in the data set with PDE4 enzyme it was 4 nM.
With `O=C(O/C(=C\c1c(Cl)cncc1Cl)c1ccc(OC(F)F)c(OCC2CC2)c1)c1ccc(OC(F)F)c(OCC2CC2)c1` [CHF 5514, 3-Cyclopropylmethoxy-4-difluoromethoxy-benzoic acid, (Z)-1-(3-cyclopropylmethoxy-4-difluoromethoxy-phenyl)-2-(3,5-dichloro-pyridin-4-yl)vinyl ester], the IC50 in data set [1] turned out to be 12.5 nM; with PDE4 enzyme, 1.2 nM.
On to `COc1ccc(/C(=C/c2c(Cl)cncc2Cl)OC(=O)c2ccc(NS(=O)(=O)c3ccc(F)cc3)cc2)cc1OC` [CHF 5533, 4-(4-Fluoro-benzenesulfonylamino)-benzoic acid, (Z)-2-(3,5-dichloro-pyridin-4-yl)-1-(3,4-dimethoxy-phenyl)vinyl ester], for which the IC50 in data set [1] turned out to be 3.1 nM; in the data set with PDE4 enzyme, 0.37 nM.
For `COc1ccc(/C(=C/c2c(Cl)cncc2Cl)OC(=O)c2ccccc2)cc1OC` [CHF 5415, Benzoic acid, (Z)-2-(3,5-dichloro-pyridin-4-yl)-1-(3,4-dimethoxy-phenyl)vinyl ester] the same measures were 5.7 nM and 5.7 nM.
The like results for `COc1ccc(/C(=C/c2c(Cl)cncc2Cl)OC(=O)c2ccc(NS(=O)(=O)c3ccc(C)cc3)cc2)cc1OC` [CHF 5537, 4-(Toluene-4-sulfonylamino)-benzoic acid, (Z)-2-(3,5-dichloro-pyridin-4-yl)-1-(3,4-dimethoxy-phenyl)vinyl ester] were, in that order, 6.3 nM and 0.35 nM.
As to `COc1ccc(C(=O)O/C(=C\c2c(Cl)cncc2Cl)c2ccc(OC)c(OC3CCCC3)c2)cc1OC` [CHF 5532, 3,4-Dimethoxy-benzoic acid, (Z)-1-(3-cyclopentyloxy-4-methoxy-phenyl)-2-(3,5-dichloro-pyridin-4-yl)vinyl ester], the figures for the IC50 (in data set [1]; in the data set on PDE4 enzyme) were 2.2 nM and 12.6 nM, respectively.
For `COc1ccc(/C(=C/c2c(Cl)cncc2Cl)OC(=O)C2(c3ccc(C)cc3)CC2)cc1OC` [CHF 5557, 1-p-Tolyl-cyclopropanecarboxylic acid, (Z)-2-(3,5-dichloro-pyridin-4-yl)-1-(3,4-dimethoxy-phenyl)vinyl ester], the IC50 in data set [1] stood at 10.1 nM; with PDE4 enzyme, 13.8 nM.
For `COc1ccc(C(=O)O/C(=C\c2c(Cl)cncc2Cl)c2ccc(OC)c(OC)c2)cc1` [CHF 5429, 4-Methoxy-benzoic acid, (Z)-2-(3,5-dichloro-pyridin-4-yl)-1-(3,4-dimethoxy-phenyl)vinyl ester] the same measures were 5.6 nM and 1 nM.
`COc1ccc(C(=O)O/C(=C\c2c(Cl)cncc2Cl)c2ccc(OC)c(OCC3CC3)c2)cc1OCC1CC1` [CHF 5546, 3-Cyclopropylmethoxy-4-methoxy-benzoic acid, (Z)-1-(3-cyclopropylmethoxy-4-methoxy-phenyl)-2-(3,5-dichloro-pyridin-4-yl)vinyl ester] came in with an IC50 in data set [1] of 1 nM.

The values are drawn from patent publication US7671066B2, “Derivatives of 1-phenyl-2-pyridynyl alkylene alcohols as phosphodiesterase inhibitors” (Chiesi Farmaceutici S.p.A., priority 2006, dated 2010).
